{"source": "patent US10610501B2", "about": "“Methods and materials for reducing ischemia-reperfusion injury” (The University of Pécs (Pécsi Tudományegyetem), priority 2014, dated 2020)", "type_in_all_cases": "in vivo, rat", "key": {"[1]": {"system": "Wistar albino rats, ischemia-reperfusion", "assay": "Reduced glutathione (GSH) levels in whole blood after ischemia-reperfusion", "method": "(§1) The rats were divided randomly into four groups. The first group was a group of operated rats that underwent ischemia followed by an hour-long reperfusion without being treated with ABA (operated untreated control). The other three groups included operated rats that underwent ischemia followed by an hour-long reperfusion with an ABA treatment (intravenously; final concentration of 100 μM) either 20 minutes, 40 minutes, or 60 minutes before reperfusion. Upon completion of the one-hour reperfusion, the rats were anesthetized with intraperitoneal injection of ketamine (40 mg/kg) and diazepam (5 mg/kg) and evaluated.\n(§2) Rats were randomly divided into five groups. The first group was a group of operated rats that underwent ischemia followed by an hour-long reperfusion without being treated with ABA (operated untreated control). […] Upon completion of the one-hour reperfusion, the rats were anesthetized with intraperitoneal injection of ketamine (40 mg/kg) and diazepam (5 mg/kg) and evaluated.\n(§3) In another dosage experiment, rats were randomly divided into five groups. […] Upon completion of the one-hour reperfusion, the rats were anesthetized with intraperitoneal injection of ketamine (40 mg/kg) and diazepam (5 mg/kg) and evaluated.\n(§4) Following the anesthesia, an abdominal opening technique was performed by a midline laparotomy incision. […] Right after the one-hour reperfusion treatment period, peripheral blood samples were collected and evaluated.\n(§5) Malondialdehyde (MDA) levels were determined in anti-coagulated whole blood using a colorimetric assay as described elsewhere (Ohakawa et al., Anal. Biochem., 95:351-8 (1979)). Reduced glutathione (GSH) levels, as opposed to oxidized GSH, were measured in anti-coagulated whole blood using a colorimetric assay as described elsewhere (Sedlak and Lindsay, Anal. Biochem., 25:192-205 (1968)). Superoxide dismutase (SOD) enzyme activity was measured in washed red blood cells using a colorimetric assay as described elsewhere (Misra and Fridovich, J. Biol. Chem., 247:3170-3175 (1972)). […]"}, "[2]": {"system": "Wistar albino rats, ischemia-reperfusion", "assay": "Total thiol groups (SH) in whole blood after ischemia-reperfusion", "conditions": "10, 50, 100 and 500 μM, 40 minutes before reperfusion; FIG. 4", "method": "(§6) In another dosage experiment, rats were randomly divided into five groups. The first group was a group of operated rats that underwent ischemia followed by an hour-long reperfusion without being treated with ABA (operated untreated control). The other four groups included operated rats that underwent ischemia followed by an hour-long reperfusion with an intravenous ABA treatment 40 minutes before reperfusion at a final concentration of either 10 μM, 50 μM, 100 μM, or 500 μM of ABA. Upon completion of the one-hour reperfusion, the rats were anesthetized with intraperitoneal injection of ketamine (40 mg/kg) and diazepam (5 mg/kg) and evaluated.\nFollowing the anesthesia, an abdominal opening technique was performed by a midline laparotomy incision. See, FIGS. 1A-F. After repositioning the intestines, the aorta came into sight and was carefully isolated. […] Right after the one-hour reperfusion treatment period, peripheral blood samples were collected and evaluated.\nMalondialdehyde (MDA) levels were determined in anti-coagulated whole blood using a colorimetric assay as described elsewhere (Ohakawa et al., Anal. Biochem., 95:351-8 (1979)). Reduced glutathione (GSH) levels, as opposed to oxidized GSH, were measured in anti-coagulated whole blood using a colorimetric assay as described elsewhere (Sedlak and Lindsay, Anal. Biochem., 25:192-205 (1968)). […]"}, "[3]": {"system": "Wistar albino rats, ischemia-reperfusion", "assay": "Malondialdehyde (MDA) levels in whole blood after ischemia-reperfusion (infrarenal aorta occlusion)", "method": "as §1, §2, §3, §4, §5"}, "skeletal muscle": {"system": "skeletal muscle", "assay": "Histological analysis of skeletal muscle (m. tensor fasciae latae) after ischemia-reperfusion", "conditions": "100 μM i.v. at 20th minute of 1 h ischemia, 1 h reperfusion; versus ischemic reperfused operated controls; FIG. 7C", "method": "Wistar albino rats (250-280 g) were sham operated (control without ischemia-reperfusion treatment), subjected to ischemia followed by reperfusion (ischemia-reperfusion control), or subjected to ischemia followed by reperfusion with ABA being injected intravenously at a final concentration of 100 μM at the 20th minute of the one hour long ischemic period, which was followed by a one-hour reperfusion. After the one-hour reperfusion periods, tissue samples were obtained from the hind limb (m. tensor fasciae latae) of the rats and fixed in 10% buffered formaldehyde prior to being processed in a paraffin-embedded block. Four-micrometer-thick sections were cut and stained with hematoxylin and eosin."}, "SOD mRNA": {"system": "SOD mRNA", "assay": "SOD mRNA expression in renal tissue, semi-quantitative RT-PCR", "conditions": "increasing amount of ABA (10-500 μM) injected 40 minutes before reperfusion, FIG. 5", "method": "as §6\n(§7) Following the anesthesia, an abdominal opening technique was performed by a midline laparotomy incision. See, FIGS. 1A-F. After repositioning the intestines, the aorta came into sight and was carefully isolated. After the isolation process, the aorta was occluded for one hour (ischemic period). The clamp was released at the end of the ischemic period to start the reperfusion for one hour. Right after the one-hour reperfusion treatment period, peripheral blood samples were collected and evaluated.\n(§8) Total RNA was extracted from the renal tissue samples with TRI reagent (Sigma-Aldrich) according to the manufacturer's instructions. […]"}, "[4]": {"system": "Wistar albino rats, ischemia-reperfusion", "assay": "Inhibition of oxidative stress during the ischemia-reperfusion process, stress markers taken together", "method": "as §6, with “Rats were” for “In another dosage experiment, rats were”, “treatment 20” for “treatment 40”\nas §3, §4\nMalondialdehyde (MDA) levels were determined in anti-coagulated whole blood using a colorimetric assay as described elsewhere (Ohakawa et al., Anal. Biochem., 95:351-8 (1979)). […]"}, "[5]": {"system": "Superoxide dismutase (SOD)", "assay": "Superoxide dismutase (SOD) enzyme activity in washed red blood cells after ischemia-reperfusion", "method": "as §1, §2, §3, §4, §5"}, "PPAR-γ mRNA": {"system": "PPAR-γ mRNA", "assay": "PPAR-γ mRNA expression in renal tissue, semi-quantitative RT-PCR", "conditions": "ABA 40 minutes before reperfusion, FIG. 6", "method": "as §6, §7, §8"}}}
{"smiles": "CC1=CC(=O)CC(C)(C)[C@@]1(O)/C=C/C(C)=C\\C(=O)O", "note": "[ABA, (2Z,4E)-5-[(1S)-1-hydroxy-2,6,6-trimethyl-4-oxocyclohex-2-en-1-yl]-3-methylpenta-2,4-dienoic acid]", "values": [{"measurement": "reduced GSH levels", "setting": "[1]; 100 μM final concentration, administered 40 or 60 minutes prior to reperfusion, FIG. 2", "value": "increases in reduced GSH levels"}, {"measurement": "reduced GSH levels", "setting": "[1]; 50, 100 and 500 μM, 20 minutes before reperfusion, FIG. 3", "value": "decrease in the levels of reduced GSH levels"}, {"measurement": "reduced GSH levels", "setting": "[1]; 50, 100 and 500 μM, 40 minutes before reperfusion, FIG. 4", "value": "increase in the levels of reduced GSH levels"}, {"measurement": "levels of SH (total thiol groups)", "setting": "[2]", "value": "increase in the levels of SH"}, {"measurement": "level of MDA", "setting": "[3]; 100 μM final concentration, superior mesenteric vein, 0, 20, 40 and 60 minutes before reperfusion, blood after 1 h ischemia and 1 h reperfusion, FIG. 2", "value": "efficiently diminished the level of MDA at all time-points tested"}, {"measurement": "level of MDA", "setting": "[3]; 10, 50, 100 and 500 μM final concentration, 20 minutes before reperfusion, FIG. 3", "value": "efficiently diminished the level of MDA"}, {"measurement": "level of MDA", "setting": "[3]; 100 and 500 μM final concentration, 40 minutes before reperfusion, FIG. 4", "value": "efficiently diminished the level of MDA"}, {"measurement": "extracellular oedema (fiber separation)", "setting": "skeletal muscle", "value": "minimal extracellular oedema"}, {"measurement": "intercellular vacuolization", "setting": "skeletal muscle", "value": "near complete absence of intercellular vacuolization"}, {"measurement": "tissue and cell architecture", "setting": "skeletal muscle", "value": "noticeable helped to preserve of the normal tissue and cell architecture"}, {"measurement": "SOD mRNA expression", "setting": "SOD mRNA", "value": "increased levels of SOD mRNA expression"}, {"measurement": "concentration as low as which ABA inhibits oxidative stress", "setting": "[4]; 20 minutes before reperfusion", "value": 10, "unit": "µM"}, {"measurement": "levels as low as which ABA inhibits oxidative stress", "setting": "[4]; 40 minutes before reperfusion", "value": "10 to 50", "unit": "µM"}, {"measurement": "SOD activity", "setting": "[5]; 100 μM final concentration, all time-points tested (0, 20, 40, 60 minutes before reperfusion), FIG. 2", "value": "increases in SOD activity at all time-points tested"}, {"measurement": "SOD activity", "setting": "[5]; 10, 100 and 500 μM, 40 minutes before reperfusion, FIG. 4", "value": "increase in SOD activity"}, {"measurement": "SOD activity", "setting": "[5]; 100 and 500 μM, 20 minutes before reperfusion, FIG. 3", "value": "increase in SOD activity"}, {"measurement": "expression of PPAR-γ mRNA", "setting": "PPAR-γ mRNA", "value": "increased expression of PPAR-γ mRNA"}]}
